Measured values published in patent publication US20260166128A1, “HUMAN AMYLIN ANALOG, AND DERIVATIVE THEREOF AND USE THEREOF” (priority 2022, published 2026).
Entries after “also recorded” stand apart in the source; their conditions may differ. Bridge positions count the residues as written; N and C are the ends. Square brackets hold non-standard residues; d marks the D form. Peptide text beside a SMILES is read from it. * marks the point of attachment. C20 diacid = O=C(O)CCCCCCCCCCCCCCCCCCC(=O)*; Hyp = O=C(O)[C@@H]1C[C@@H](O)CN1; AEEA = NCCOCCOCC(=O)O

Experiments:
[1] = target: T1, human amylin receptor (Homo sapiens, UniProt O60896+P30988); assay: Luciferase assay of amylin derivatives in amylin receptor/CRE-luc CHO cell line; type: cell-based; conditions: EC50, CHO-K1/Ga15/AMY3 CRE-luc cells, 24 hours incubation, F12 medium containing 10% FBS
T1 construct: host or cells: CHO-K1/Ga15/AMY3 cells, further stably transfected with a CRE-luciferase plasmid
T1 sequence (P30988 25-474): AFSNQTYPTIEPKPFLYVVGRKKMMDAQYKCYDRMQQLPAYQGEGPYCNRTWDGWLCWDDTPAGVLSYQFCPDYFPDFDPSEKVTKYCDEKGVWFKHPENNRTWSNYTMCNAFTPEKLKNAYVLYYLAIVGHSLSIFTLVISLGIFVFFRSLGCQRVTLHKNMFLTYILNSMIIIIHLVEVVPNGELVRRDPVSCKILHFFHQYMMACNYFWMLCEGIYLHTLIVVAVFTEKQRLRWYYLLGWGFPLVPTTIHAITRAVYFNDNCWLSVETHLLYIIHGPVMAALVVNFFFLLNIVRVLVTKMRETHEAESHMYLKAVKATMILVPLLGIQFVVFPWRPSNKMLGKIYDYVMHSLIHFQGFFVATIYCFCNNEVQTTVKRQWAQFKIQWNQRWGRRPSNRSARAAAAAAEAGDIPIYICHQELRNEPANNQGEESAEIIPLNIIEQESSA
T1 sequence (O60896 24-148 partner): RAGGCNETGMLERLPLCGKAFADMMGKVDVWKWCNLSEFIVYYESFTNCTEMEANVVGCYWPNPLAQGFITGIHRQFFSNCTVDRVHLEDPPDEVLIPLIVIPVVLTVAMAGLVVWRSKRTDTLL
Description: The experiment was intended to detect the activity or efficacy of the amylin derivatives on a human amylin receptor in vitro by luciferase assay.
50 μL of growth medium (F12 medium containing 10% FBS) was added into each well of a white 96-well plate, and the stably transfected amylin/CRE-lue CHO cells were inoculated into the white 96-well plate at a density of about 20,000 cells/well for activity determination.

[2] = Study on fatty acid side chain of derivatives, weight reduction in SD rats (Example 7); type: in vivo; conditions: subcutaneous, 30 nmol/kg
Excerpt: SD rats obtained by the same method as in Example 5 were used in this experimental study. There were an experimental group E: for testing weight reduction effects of the compounds PD065 and PD187, and an experimental group F: for testing the compounds PD065, PD071, PD140, PD144, PD145, PD146 and PD147, with 5 to 8 rats in each group of the derivative test, and the rats in each group were subcutaneously administered with a derivative or a solvent by a dosage of 30 nmol/kg. The administration time of each group was recorded. After administration, the rats were put back into their cages in which food and water available for the rats were placed. Food consumption and weight changes of the rats were recorded every 24 hours by online recording or manual recording.

SMILES: CC[C@H](C)[C@H](NC(=O)[C@@H]1CCCN1C(=O)[C@H](CCCCN)NC(=O)[C@H](CC(C)C)NC(=O)[C@H](CC(N)=O)NC(=O)[C@H](CC(N)=O)NC(=O)[C@H](CO)NC(=O)[C@H](CO)NC(=O)[C@H](Cc1c[nH]cn1)NC(=O)[C@H](CCCNC(=N)N)NC(=O)[C@H](CC(C)C)NC(=O)[C@H](Cc1ccccc1)NC(=O)[C@H](CC(=O)O)NC(=O)[C@H](C)NC(=O)[C@H](CC(C)C)NC(=O)[C@H](CCCNC(=N)N)NC(=O)[C@H](CCC(N)=O)NC(=O)[C@@H](NC(=O)[C@H](C)NC(=O)[C@@H]1CSSC[C@H](NC(=O)[C@H](CCCCN)NC(=O)COCCOCCNC(=O)COCCOCCNC(=O)CCCCCCCCCCCCCCCCCCC(=O)O)C(=O)N[C@@H](CC(N)=O)C(=O)N[C@@H]([C@@H](C)O)C(=O)N[C@@H](C)C(=O)N[C@@H]([C@@H](C)O)C(=O)N1)[C@@H](C)O)C(=O)N[C@@H](CC(C)C)C(=O)N1CCC[C@H]1C(=O)N1CCC[C@H]1C(=O)N[C@H](C(=O)N[C@@H](CC(N)=O)C(=O)N[C@H](C(=O)NCC(=O)N[C@@H](CO)C(=O)N[C@@H](CC(N)=O)C(=O)N[C@H](C(=O)N1C[C@H](O)C[C@H]1C(N)=O)[C@@H](C)O)C(C)C)[C@@H](C)O [PD187] ({C20 diacid-AEEA-AEEA}-KCNTATCATQRLADFLRHSSNNLKPILPPTNVGSNT[Hyp]-NH2; disulfide 2-7 (inferred))
- EC50 [1]: 0.016 nM
- activity (weight reduction effect) compared with PD065 [2]: better than that of the PD065; also recorded: better weight reduction effect
